{
  "source": "patent US20070191935A1",
  "about": "“Drug Delivery Stent with Extended In Vivo Drug Release” (Conor Medsystems, Inc., priority 2006, published 2007)",
  "key": {"[1]": {"assay": "in vivo paclitaxel release from stent (explanted stents, total drug load by HPLC)", "excerpt": "The measurement of in vivo paclitaxel release from a stent can be performed according to the following Example.\nStents are implanted in a porcine model and explanted at selected time points by removing the entire artery section. The expanded stents are labeled and frozen. The tissue is removed from the stent by slicing the tissue on the outside of the stent lengthwise, inverting the tissue, and removing the tissue by cutting and turning the tissue inside out. The stent may still be covered by a tough elastic membrane which is then removed by splitting the membrane and peeling it off the stent. For longer time points, there will also be a tub of tissue inside the stent. This tube is separated from the stent with tweezers, turned inside out and pulled out of the stent.\nThe elution rates of drug from the examples are determined in a standard sink condition experiment.\nThe total drug load (TDL) of paclitaxel from a stent is determined by extracting all the polymer and drug from the stent in a solvent such as dimethyl sulfoxide (DMSO) or acetonitrile. The amount of paclitaxel in a solution sample is determined by High Pressure Liquid Chromatography (HPLC).\nThe in vivo release kinetic (RK) for paclitaxel from a stent is determined by running the TDL for multiple explanted time points. The TDL for the explanted samples is subtracted from the TDL of an unimplanted stent to determine the amount of paclitaxel released at each of the explanted time points."}, "[2]": {"tested_on": "in stent neointimal proliferation", "assay": "clinical trials, in stent neointimal proliferation", "details": "in vivo release greater than 60 days from stent"}},
  "data": [
    {"molecule": "CC(=O)O[C@H]1C(=O)[C@@]2(C)[C@H]([C@H](OC(=O)c3ccccc3)[C@]3(O)C[C@H](OC(=O)[C@H](O)[C@@H](NC(=O)c4ccccc4)c4ccccc4)C(C)=C1C3(C)C)[C@]1(OC(C)=O)CO[C@@H]1C[C@@H]2O", "note": "[paclitaxel]", "values": [
      {"measurement": "in vivo release of the paclitaxel on the stent in the first 30 days after implantation", "setting": "[1]; first 30 days after implantation", "value": "not more than 40%"},
      {"measurement": "complete release of the entire dose of paclitaxel loaded on the stent", "setting": "[1]; in vivo", "value": "≤ 8", "unit": "months"},
      {"measurement": "time until all the drug loaded on the stent is released", "setting": "[1]; in vivo, FIG. 4", "value": "90 to 180", "unit": "days"},
      {"measurement": "release rate after day one", "setting": "[1]; in vivo, after day one, continues for up to about 90 days", "value": "under 0.1 μg per day"},
      {"measurement": "in stent neointimal proliferation, longer in vivo release vs more rapid release of the same dosage", "setting": "[2]", "value": "lower in stent neointimal proliferation than the more rapid release of the same dosage"}
    ]}
  ]
}
